The values below come from paper PMC6718442, “11β-Hydroxysteroid dehydrogenases control access of 7β,27-dihydroxycholesterol to retinoid-related orphan receptor γ” (Journal of Lipid Research, 2019).

In one test the target is T1, mouse 11β-hsd2 (Mus musculus, UniProt P51661).
T1 construct: The determination of 11β-hsd2 activity in mouse kidney homogenates; from tissue; host or cells: kidney of adult male C57BL6 mice
T1 sequence (P51661 1-386): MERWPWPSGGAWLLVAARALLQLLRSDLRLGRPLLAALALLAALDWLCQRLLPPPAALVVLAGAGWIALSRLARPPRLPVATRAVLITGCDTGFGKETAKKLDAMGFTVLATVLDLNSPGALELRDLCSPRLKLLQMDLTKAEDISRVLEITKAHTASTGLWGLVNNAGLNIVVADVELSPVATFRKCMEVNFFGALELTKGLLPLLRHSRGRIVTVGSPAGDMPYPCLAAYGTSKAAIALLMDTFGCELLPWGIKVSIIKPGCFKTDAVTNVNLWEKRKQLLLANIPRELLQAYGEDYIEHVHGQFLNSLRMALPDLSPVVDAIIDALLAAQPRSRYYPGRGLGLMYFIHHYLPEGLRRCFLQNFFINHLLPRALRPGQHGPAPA
Nature of the test: 11β-hsd2 activity in mouse kidney homogenates (corticosterone to 11-dehydrocorticosterone). The format is biochemical. The procedure: The determination of 11β-hsd2 activity in mouse kidney homogenates was conducted as described earlier ([41]). Briefly, for homogenate preparation, kidneys from adult male mice (C57BL6) were snap-frozen and sonicated in homogenization buffer [250 mM sucrose, 10 mM HEPES (pH 7.4); 900 μl for 100 mg of tissue]. Then, the homogenate was centrifuged (2,000 g, 4°C for 10 min) and the total protein concentration determined. The enzymatic reaction was assessed using 0.075 mg/ml total protein of the kidney homogenate in incubation buffer [300 mM NaCl, 20 mM Tris/HCl, 1 mM EDTA, 10% glycerol (pH 7.7)], different concentrations of oxysterols, 50 nM of corticosterone (containing 50 nCi [1,2,6,7-^3H] corticosterone), and 500 μM NAD^+ at 37°C for 20 min. Corticosterone and 11-dehydrocorticosterone were separated using TLC. Substrate conversion was determined by scintillation counting. Data (mean ± SD) were normalized to vehicle control (DMSO) and obtained from at least three independent experiments.

Another test addresses T2, mouse 11β-hsd1 (Mus musculus, UniProt P50172).
T2 construct: expressed in transfected cells; host or cells: HEK-293
The test is described as follows: Inhibition of murine 11β-hsd1-dependent oxoreduction of cortisone in HEK-293 cell lysates. The format is biochemical. The conditions noted are these: for IC50: mouse ortholog, 200 nM cortisone, 10 min, 37°C, read-out: IC50, mouse 11β-hsd1-dependent conversion of cortisone to cortisol. The procedure: 11β-HSD1 and 11β-HSD2 enzyme activities were assessed in lysates of HEK-293 cells stably expressing the respective enzyme as reported earlier ([40]). Briefly, 11β-HSD1-dependent oxoreductase activity was determined by the incubation of lysates with 200 nM of radiolabeled cortisone, 500 μM of NADPH, and the test substance or vehicle for 10 min at 37°C. 11β-HSD2-dependent oxidation of cortisol was measured instead by the addition of 50 nM of radiolabeled cortisol and 500 μM of NAD^+. The enzymatic reaction was stopped by introducing an excess amount of unlabeled cortisone and cortisol (1:1, 2 mM unlabeled each, in methanol). Cortisone and cortisol were separated using TLC and a chloroform and methanol (9:1, v/v) mixture. The bands were detected under UV light, scraped off the plate, and metabolism of the radiolabeled substrate was then evaluated by scintillation counting and the substrate conversion determined and compared with the control sample. Data (mean ± SD) were normalized to the control (DMSO) sample and obtained from at least three independent experiments.

The structures appear in SMILES notation.

T2 sequence (P50172 whole entry): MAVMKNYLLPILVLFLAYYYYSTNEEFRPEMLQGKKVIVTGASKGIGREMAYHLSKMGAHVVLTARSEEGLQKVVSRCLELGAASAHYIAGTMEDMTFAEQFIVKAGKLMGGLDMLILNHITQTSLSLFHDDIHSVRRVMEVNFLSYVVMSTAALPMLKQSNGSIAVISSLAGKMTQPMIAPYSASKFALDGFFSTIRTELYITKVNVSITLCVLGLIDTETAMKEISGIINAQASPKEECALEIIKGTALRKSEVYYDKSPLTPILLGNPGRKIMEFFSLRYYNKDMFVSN

For the compound `C[C@@H](CO)CCC[C@@H](C)[C@H]1CC[C@H]2[C@@H]3[C@H](O)C=C4C[C@@H](O)CC[C@]4(C)[C@H]3CC[C@]12C` [7α27OHC], at mouse 11β-hsd2, the “Inhibition of mouse 11β-hsd2 activity (in words)” value was “Neither 7β27OHC nor 7α27OHC inhibited”. At mouse 11β-hsd1 (1 μM test substance, data not shown), the “Rest enzyme activity of mouse 11β-hsd1” value is on record as approximately 30%.
Usually IC50 stands for the point on the concentration scale where inhibition reaches its midpoint. For the compound `CC(CO)CCC[C@@H](C)[C@H]1CC[C@H]2[C@@H]3C(=O)C=C4C[C@@H](O)CC[C@]4(C)[C@H]3CC[C@]12C` (stereo partly drawn) [7k27OHC, 7-keto,27-hydroxycholesterol], the IC50 worked out at 1650 ± 400 nM at mouse 11β-hsd2 (50 nM corticosterone, 20 min, 37°C, read-out: IC50, mouse 11β-hsd2 activity (corticosterone to 11-DHC)) and 36 ± 2 nM on mouse 11β-hsd1.
Regarding `CC(CO)CCC[C@@H](C)[C@H]1CC[C@H]2[C@@H]3[C@@H](O)C=C4C[C@@H](O)CC[C@]4(C)[C@H]3CC[C@]12C` (stereo partly drawn) [7β27OHC, 7β,27-dihydroxycholesterol], the “Inhibition of mouse 11β-hsd2 activity (in words)” value on mouse 11β-hsd2 is “Neither 7β27OHC nor 7α27OHC inhibited”. Besides, the IC50 at mouse 11β-hsd1 stood at 66 ± 11 nM.
